Measured values taken from BindingDB's records for patent US11993596 (Chia Tai Tianqing Pharmaceutical Group, 2024).

Biological target: T1, 3',5'-cyclic-AMP phosphodiesterase 4B (Homo sapiens, UniProt Q07343)
T1 construct: gene PDE4B
Test: In Vitro Detection of the Inhibitory Activity of Compounds Against PDE 4B Enzyme
Method: The recombinant human PDE4B enzyme and enzyme substrate (1 μM cAMP) were each dissolved in newly prepared experimental buffer solution;2. The PDE4B enzyme buffer solution was transferred into reaction wells;3. The compound which was dissolved in 100% DMSO was added to the reaction wells containing PDE4B enzyme buffer solution by acoustic technique (echo 550; […]) and the mixture was incubated for 10 minutes at room temperature;4. The enzyme substrate buffer solution was added to the above reaction wells to initiate reaction;5. The resulting mixture was incubated at room temperature for 1 hour;6. The detection mixture (Transcreener AMP2/GMP2 antibody and AMP2/GMP2 AlexaFluor633 tracer) was added to stop the reaction, and the resulting mixture was incubated for 90 minutes while slowly mixing.

T1 sequence (Q07343 whole entry, looked up): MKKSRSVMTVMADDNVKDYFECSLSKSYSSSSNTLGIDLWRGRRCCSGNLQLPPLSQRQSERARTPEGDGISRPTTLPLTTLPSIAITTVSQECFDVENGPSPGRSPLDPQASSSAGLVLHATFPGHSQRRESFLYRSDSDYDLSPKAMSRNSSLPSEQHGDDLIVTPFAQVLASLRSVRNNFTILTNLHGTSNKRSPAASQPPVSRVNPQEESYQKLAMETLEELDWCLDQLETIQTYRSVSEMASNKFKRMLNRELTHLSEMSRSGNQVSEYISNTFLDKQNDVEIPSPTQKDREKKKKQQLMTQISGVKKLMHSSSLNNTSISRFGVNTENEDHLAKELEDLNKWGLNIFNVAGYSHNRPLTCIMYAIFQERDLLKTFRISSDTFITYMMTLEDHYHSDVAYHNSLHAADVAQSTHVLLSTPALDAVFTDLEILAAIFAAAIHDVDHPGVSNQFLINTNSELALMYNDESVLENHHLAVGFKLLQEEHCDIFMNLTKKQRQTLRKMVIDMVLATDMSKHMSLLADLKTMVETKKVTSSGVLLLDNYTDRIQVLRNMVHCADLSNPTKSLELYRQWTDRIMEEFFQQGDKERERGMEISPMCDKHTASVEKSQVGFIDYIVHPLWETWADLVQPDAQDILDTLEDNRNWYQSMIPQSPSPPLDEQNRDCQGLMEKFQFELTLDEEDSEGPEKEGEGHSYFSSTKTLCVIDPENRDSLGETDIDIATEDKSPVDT

| Compound | IC50 |
| --- | --- |
| CCOc1cc2c(cc1OC)-c1c/c(=N\c3c(C)cc(C)cc3C)n(CCN(O)C(=O)c3cnn[nH]3)c(=O)n1CC2 [US11993596, Compound WX064] | 1.4 nM |
| CCOc1cc2c(cc1OC)-c1c/c(=N\c3c(C)cc(C)cc3C)n(CCNC(=O)c3nnc[nH]3)c(=O)n1CC2 [US11993596, Compound WX015] | 0.56 nM |
| CCOc1cc2c(cc1OC)-c1c/c(=N\c3c(C)cc(C)cc3C)n(CCNc3nncs3)c(=O)n1CC2 [US11993596, Compound WX005] | 5.7 nM |

Further lines, results first:

| IC50 | Compound |
| --- | --- |
| 2.7 nM | CCOc1cc2c(cc1OC)-c1c/c(=N\c3c(C)cc(C)cc3C)n(CCC(=O)Nc3nnc[nH]3)c(=O)n1CC2 [US11993596, Compound WX054] |
| 2.2 nM | CCOc1cc2c(cc1OC)-c1c/c(=N\c3c(C)cc(C)cc3C)n(CCNc3nc[nH]n3)c(=O)n1CC2 [US11993596, Compound WX003] |
| 6.5 nM | CCOc1cc2c(cc1OC)-c1c/c(=N\c3c(C)cc(C)cc3C)n(CCN3CCOC3=O)c(=O)n1CC2 [US11993596, Compound WX001] |
